The results in this text go back to publication PMC9200803, “Design, synthesis, and biological evaluation of tetrahydroquinolinones and tetrahydroquinolines with anticancer activity” (Scientific Reports, 2022).

Some results are limits rather than exact numbers.

What all share (assay type): cell-based, human
The subject of data set [1] is A-549 cells. Briefly: MTT cell viability assay, A-549. On the procedure: (§1) To evaluate the effects of the newly synthesized tetrahydroquinolin-2(1H)-one derivatives on cell viability, we treated human colon cancer cells HCT-116, human breast cancer cells MCF-7, and human non-small cell lung cancer cells A-549 with different concentrations of the compounds for 72 h. After incubation, the MTT (3-(4,5-dimethylthiazol-2-yl)-2,5-diphenyltetrazolium bromide) assay was performed and the cytotoxic potency of compounds (expressed in IC50) on the cells was determined in comparison to control cells treated with 1% of dimethyl sulfoxide (DMSO) (Table 1). […] We also compared the activity of 20d and 19b to the reference control drug Cisplatin, which is widely used in chemotherapy.
(§2) A-549 (CCL-185) and MCF-7 ([…]) cells were cultured in RPMI-1640 medium, while HCT-116 (CVCL-427), (hMLH1)-deficient (MMR^–) and hMLH1-proficient (MMR^+) RKO cells were cultured in McCoy’s 5A medium. The culture media were supplemented with 10% fetal bovine serum, 2 mM L-glutamine, and antibiotics (penicillin 62.6 µg/ml and streptomycin 40 µg/ml). Cultivation of cell lines was carried out at 37 °C under a humidified atmosphere containing 5% CO2, and the cultures were routinely screened for Mycoplasma contamination. A-549, MCF-7, and HCT-116 cells were obtained from American Type Culture Collection (ATCC), while RKO colon carcinoma cells were a kind gift of Dr Timothy Kinsella (Brown University, USA).
(§3) The viability of cells was determined in response to the newly synthesized compounds using the MTT (Sigma-Aldrich) assay. Briefly, cells were seeded into 96-well plates and allowed to attach overnight. Then, cells were exposed to various concentrations of compounds for 24, 48 or 72 h. Negative controls were treated with the same amount of DMSO solvent (1%). After treatment, the MTT solution (0.4 mg/ml) was added to each well and allowed to react with cells for 2–3 h at 37 °C. Next, the medium was removed, the formazan product formed was dissolved in 100 μl of DMSO, and the absorbance was determined at 540 nm using an ASYS UVM340 microplate reader (Biochrom Ltd.). The IC50 value, which represents the concentration of the compound required to inhibit cell growth by 50% compared to vehicle, was calculated using GraphPad Prism 8 software based on the curves plotting survival against dose averaged from at least three independent experiments.
In general terms: Tetrazolium assays rely on reduction of a dye to a coloured formazan, in cell work by metabolically active cells.

Data set [2] has as its system hMLH1-deficient RKO cells. The data set can be described thus: ROS level, H2DCFDA probe, MMR-deficient RKO. The following applies: 1 h of exposure, vs control. The protocol: Then, we confirmed whether the induction of cellular stress by 20d is related to MMR deficiency by exposing MMR-deficient and MMR-proficient cells to the compound for different times and measuring the ROS levels. Our results indicated a greater increase in the level of ROS after 1 h of exposure in 20d-treated MMR-deficient cells than in MMR-proficient cells (54.71 ± 2.70% and 22.27 ± 1.7%, respectively), in comparison to control (Fig. 7).
The […] ROS levels were determined using an H2DCFDA (2′,7′-dichlorodihydrofluorescein diacetate) probe (Thermo Fisher) following the manufacturer’s protocol. […] DMSO (1%, Merck) and 250 μM H2O2 were used as a negative and positive control, respectively. NAC (500 μM, Sigma-Aldrich) was used as an ROS scavenger to confirm the ROS activity. After treatment with 20d and 19b, cells were incubated with H2DCFDA at 37 °C for 30 min. Subsequently, cells were harvested by trypsinization, rinsed with PBS, and stained with 7-AAD (Thermo Fisher). Finally, the stained cells were analyzed by flow cytometry using a Guava easyCyte 8 cell sorter (Merck Millipore) and FlowJo v10 software.

Data set [3] relates to HCT-116 cells. The data set can be described thus: MTT cell viability assay, HCT-116. The following applies: for IC50: MTT, 72 h, IC50 ± SD. On the procedure: as §1, §2, §3
The test system of data set [4] is HCT-116 cells. The data set can be described thus: Western blot protein expression in HCT-116 cells. On the procedure:
HCT-116 cells were seeded into 60-mm Petri dishes at a density of 1.5 × 10^6 cells per dish and incubated overnight. […] After treatment, cells were lysed in Laemmli buffer with a protease and phosphatase inhibitors cocktail (Roche), followed by sonification The lysate was cleared by centrifuging at 16,000×g for 15 min at 12 °C. The supernatant was collected, and the extract was quantified for protein using the DC Protein Assay (Bio-Rad). Proteins were resolved by 10% or 12% sodium dodecyl sulfate–polyacrylamide gel electrophoresis and transferred to polyvinylidene difluoride membranes (Bio-Rad). Membranes were blocked using 5% (w/v) bovine serum albumin (Sigma-Aldrich) in 1× TBST (pH 7.4 and 0.1% Tween-20) for 1 h at room temperature and subsequently incubated overnight with primary antibodies at 4 °C. The blots were washed thrice with TBST and then incubated with horseradish peroxidase-conjugated antibodies for 1 h at room temperature. After washing, the membranes were evaluated for detecting the protein bands using enhanced chemiluminescence detection reagent kit (Thermo Fisher) and ChemiDoc XRS + Imaging System (Bio-Rad). The band intensity was measured using ImageLab 5.2 software (Bio-Rad).
On the technique in general: In western blotting, separated proteins are transferred to a membrane and probed.

Data set [5] relates to HCT-116 cells. The data set can be described thus: Cell cycle distribution analysis by flow cytometry (PI staining). The following applies: HCT-116, 24 to 72 h, vs vehicle. The protocol: Based on their antiproliferative activity, 20d and 19b were evaluated for their effect on cell cycle phase distribution and DNA content by flow cytometry.
HCT-116 and A-549 cells were seeded into culture plates and allowed to attach overnight. Then, cells were incubated with the investigated compounds for the indicated time points. After incubation, the harvested cells were fixed with ice-cold 75% ethanol and stored overnight at − 20 °C. Next, cells were rehydrated with PBS in ice for 15 min and washed twice in PBS. Finally, cells were stained with […] propidium iodide (PI) and […] RNase A in PBS for 30 min at room temperature. Cell cycle distribution was determined using a Guava easyCyte 8 flow cytometer (Merck Millipore) and FlowJo v10 software.
For orientation: Flow cytometry measures light scatter and fluorescence of single cells or particles in a stream.

In the case of `O=C(Nc1cccc(F)c1)OC1CCCc2c(-c3ccccc3)cc(=O)[nH]c21` (centres unmarked) [Compound 20d, (2-oxo-4-phenyl-5,6,7,8-tetrahydroquinolin-8-yl) N-(3-fluorophenyl)carbamate], the “fold lower concentration than Cisplatin suppressing 50% of cell viability” value in data set [1] (A-549) amounted to 5 fold. Moreover, the IC50 (as a rule, the midpoint of a concentration-inhibition curve) in data set [1] (Homo sapiens, A549, MTT, 72 h, IC50 ± SD) turned out to be 12.6 ± 0.54 µM. Also, in data set [2], the “increase in the level of ROS” value was 54.71 ± 2.70%. For the same compound, the “cytotoxic effect after 24 h and 48 h exposure” value in data set [3] (HCT-116, 10 and 20 µM) was “slight cytotoxic effect”. This compound returned an IC50 in data set [3] (Homo sapiens, HCT-116, 72 h) of about 13 µM. The midpoint of inhibition in data set [3], the IC50, lay at 12 ± 0.57 µM. For the same compound, in data set [4] (HCT-116), the “expression of LAMP-1 protein” value is reported as “time-dependent increase”, the expression of vimentin result was “significantly altered”, the “level of phospho-AKT (Ser473)” value is reported as “significantly reduced” and the “level of phospho-mTOR (Ser2448)” value is recorded as “significantly reduced”. Moreover, the “expression of p-γ-H2AX” value in data set [4] (HCT-116, 24–72 h, immunoblot and immunofluorescence) is listed as “significantly increased”. In addition, the “cyclin D1 expression” value in data set [4] (HCT-116, 72 h, vs DMSO) is given as “slight inhibition”. The β-catenin result in data set [4] (HCT-116, even after 24 h) is “caused the cleavage of β-catenin”. The “levels of LC3-II” value in data set [4] (HCT-116, vs control) was “higher”. In data set [4] (HCT-116, vs control, p < 0.001), the “expression of p21” value is reported as “markedly higher”, the “expression of p27” value is on record as “markedly higher” and the “expression of p53” value is reported as “markedly higher”. Also, in data set [4] (HCT-116, vs vehicle), the expression of c-myc result is listed as “downregulated”. In data set [5], the “increase in the number of cells in the G0/G1 phase” value is given as under 14% and the “number of cells in the S-phase” value is on record as “substantial decrease”.
